29 compounds from ChEMBL document CHEMBL5291721, “A preclinical secondary pharmacology resource illuminates target-adverse drug reaction associations of marketed drugs” (Nat Commun, 2023) can be followed below.

The target in test [1] is Delta-type opioid receptor (Homo sapiens, UniProt P41143).
The target in test [2] is Neuronal acetylcholine receptor subunit alpha-4 (Homo sapiens, UniProt P43681).
A further test addresses T1, Adenosine receptor A3 (Homo sapiens, UniProt P0DMS8).
T1 sequence (P0DMS8 whole entry): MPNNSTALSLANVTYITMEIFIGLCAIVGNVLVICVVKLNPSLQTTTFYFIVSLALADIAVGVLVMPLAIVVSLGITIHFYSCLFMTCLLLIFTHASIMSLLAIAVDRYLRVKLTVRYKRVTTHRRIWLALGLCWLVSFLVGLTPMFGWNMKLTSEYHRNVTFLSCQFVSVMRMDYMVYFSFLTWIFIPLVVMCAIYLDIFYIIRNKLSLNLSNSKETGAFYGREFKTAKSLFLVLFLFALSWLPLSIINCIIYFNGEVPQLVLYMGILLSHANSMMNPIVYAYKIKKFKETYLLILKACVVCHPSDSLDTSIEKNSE

Test [3] concerns the target 3',5'-cyclic-AMP phosphodiesterase 4D (Homo sapiens, UniProt Q08499). It counts as functional.
The next test has as its target T2, Adenosine receptor A1 (Homo sapiens, UniProt P30542).
T2 sequence (P30542 whole entry): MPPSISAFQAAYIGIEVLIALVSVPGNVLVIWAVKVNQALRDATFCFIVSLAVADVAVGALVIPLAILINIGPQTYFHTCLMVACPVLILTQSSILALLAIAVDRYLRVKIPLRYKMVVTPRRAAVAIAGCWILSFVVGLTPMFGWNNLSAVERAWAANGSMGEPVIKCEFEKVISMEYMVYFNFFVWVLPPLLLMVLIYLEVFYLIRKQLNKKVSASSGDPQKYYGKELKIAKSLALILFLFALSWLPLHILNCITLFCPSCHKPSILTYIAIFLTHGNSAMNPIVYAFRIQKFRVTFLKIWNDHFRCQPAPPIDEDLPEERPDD

Test [4] has as its target T3, Amine oxidase [flavin-containing] A (Homo sapiens, UniProt P21397).
T3 sequence (P21397 whole entry): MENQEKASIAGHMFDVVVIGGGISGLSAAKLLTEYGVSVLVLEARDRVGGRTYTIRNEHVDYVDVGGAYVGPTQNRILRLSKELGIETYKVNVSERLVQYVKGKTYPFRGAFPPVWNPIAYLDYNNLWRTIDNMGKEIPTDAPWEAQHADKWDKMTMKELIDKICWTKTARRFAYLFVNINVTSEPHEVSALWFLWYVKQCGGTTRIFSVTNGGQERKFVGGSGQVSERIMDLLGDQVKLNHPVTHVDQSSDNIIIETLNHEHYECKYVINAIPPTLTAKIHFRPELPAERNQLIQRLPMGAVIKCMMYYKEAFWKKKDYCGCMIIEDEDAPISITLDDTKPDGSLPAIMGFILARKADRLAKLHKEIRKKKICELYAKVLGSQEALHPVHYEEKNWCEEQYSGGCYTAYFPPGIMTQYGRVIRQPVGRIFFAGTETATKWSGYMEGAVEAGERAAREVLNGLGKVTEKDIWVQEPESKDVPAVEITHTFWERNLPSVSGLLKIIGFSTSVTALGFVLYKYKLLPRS
It counts as functional.

The target in test [5] is T4, Muscarinic acetylcholine receptor M2 (Homo sapiens, UniProt P08172).
T4 sequence (P08172 whole entry): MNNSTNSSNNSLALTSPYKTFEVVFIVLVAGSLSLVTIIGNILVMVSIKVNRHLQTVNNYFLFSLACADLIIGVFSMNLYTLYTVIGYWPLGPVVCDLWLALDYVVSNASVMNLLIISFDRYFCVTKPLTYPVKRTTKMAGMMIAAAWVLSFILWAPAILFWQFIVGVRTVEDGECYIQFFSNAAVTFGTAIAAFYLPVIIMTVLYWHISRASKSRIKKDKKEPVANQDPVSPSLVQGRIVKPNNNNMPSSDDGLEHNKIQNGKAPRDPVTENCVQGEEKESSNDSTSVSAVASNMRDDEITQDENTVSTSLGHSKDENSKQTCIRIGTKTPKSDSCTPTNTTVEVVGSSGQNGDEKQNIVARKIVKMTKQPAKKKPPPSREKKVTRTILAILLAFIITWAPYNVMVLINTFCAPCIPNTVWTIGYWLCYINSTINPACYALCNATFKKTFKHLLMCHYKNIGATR
It counts as functional, cell-based.

The target of another test is Motilin receptor (Homo sapiens, UniProt O43193).
The target in test [6] is Voltage-gated inwardly rectifying potassium channel KCNH2 (Homo sapiens, UniProt Q12809). It counts as functional. The following applies: read-out: AC50.
Test [7] has as its target T4, Muscarinic acetylcholine receptor M2.
The next test concerns the target D(1A) dopamine receptor (Homo sapiens, UniProt P21728). It counts as functional, cell-based.
Test [8] has as its target T5, Alpha-2A adrenergic receptor (Homo sapiens, UniProt P08913).
T5 sequence (P08913 whole entry): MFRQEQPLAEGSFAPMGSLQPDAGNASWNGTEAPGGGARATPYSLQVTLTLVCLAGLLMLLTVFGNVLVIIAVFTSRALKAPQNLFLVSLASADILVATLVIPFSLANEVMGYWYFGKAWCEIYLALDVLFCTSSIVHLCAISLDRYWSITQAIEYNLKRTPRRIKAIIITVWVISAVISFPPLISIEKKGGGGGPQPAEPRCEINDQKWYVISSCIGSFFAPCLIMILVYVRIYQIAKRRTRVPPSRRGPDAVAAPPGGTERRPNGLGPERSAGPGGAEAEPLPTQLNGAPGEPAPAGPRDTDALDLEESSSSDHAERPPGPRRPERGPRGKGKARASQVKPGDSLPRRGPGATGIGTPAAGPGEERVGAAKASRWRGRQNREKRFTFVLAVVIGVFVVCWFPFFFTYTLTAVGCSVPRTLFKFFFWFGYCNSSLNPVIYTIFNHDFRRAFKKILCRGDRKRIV
It counts as functional, cell-based.

SMILES strings stand for the structures. Where only a bound is given, the exact number is not on record here.
Note: assay procedure not described here.

Sequence of Delta-type opioid receptor (P41143 whole entry): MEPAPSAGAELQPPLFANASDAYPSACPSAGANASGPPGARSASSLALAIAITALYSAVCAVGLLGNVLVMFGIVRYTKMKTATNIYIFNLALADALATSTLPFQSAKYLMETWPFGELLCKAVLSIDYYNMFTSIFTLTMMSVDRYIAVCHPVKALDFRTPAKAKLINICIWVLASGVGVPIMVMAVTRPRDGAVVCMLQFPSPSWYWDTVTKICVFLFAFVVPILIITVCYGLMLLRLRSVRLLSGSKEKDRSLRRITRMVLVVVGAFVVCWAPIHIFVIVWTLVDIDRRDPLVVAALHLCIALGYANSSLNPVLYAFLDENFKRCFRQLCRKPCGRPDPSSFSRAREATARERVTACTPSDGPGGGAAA
Sequence of D(1A) dopamine receptor (P21728 whole entry): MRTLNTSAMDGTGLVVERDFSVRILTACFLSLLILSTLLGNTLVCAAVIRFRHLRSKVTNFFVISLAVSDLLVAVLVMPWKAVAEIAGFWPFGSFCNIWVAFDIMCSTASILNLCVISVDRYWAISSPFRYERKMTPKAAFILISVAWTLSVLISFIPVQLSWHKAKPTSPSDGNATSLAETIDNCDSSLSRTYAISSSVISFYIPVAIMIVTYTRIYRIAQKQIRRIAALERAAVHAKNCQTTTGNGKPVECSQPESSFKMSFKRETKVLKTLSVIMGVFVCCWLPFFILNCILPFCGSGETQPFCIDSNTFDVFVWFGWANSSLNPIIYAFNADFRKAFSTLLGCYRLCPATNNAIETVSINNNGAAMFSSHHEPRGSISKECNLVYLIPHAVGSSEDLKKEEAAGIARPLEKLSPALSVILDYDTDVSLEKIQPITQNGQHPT
Sequence of Motilin receptor (O43193 whole entry): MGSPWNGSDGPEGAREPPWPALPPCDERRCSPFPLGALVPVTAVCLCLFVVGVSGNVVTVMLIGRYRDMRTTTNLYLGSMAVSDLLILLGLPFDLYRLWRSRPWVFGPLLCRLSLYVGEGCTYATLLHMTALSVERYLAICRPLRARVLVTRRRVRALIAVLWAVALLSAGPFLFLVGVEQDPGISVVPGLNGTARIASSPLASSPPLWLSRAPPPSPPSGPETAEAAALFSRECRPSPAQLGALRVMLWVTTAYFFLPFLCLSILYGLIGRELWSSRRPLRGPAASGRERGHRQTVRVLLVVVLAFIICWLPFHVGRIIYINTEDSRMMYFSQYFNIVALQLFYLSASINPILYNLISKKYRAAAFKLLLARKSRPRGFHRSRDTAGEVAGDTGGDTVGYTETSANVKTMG
Sequence of 3',5'-cyclic-AMP phosphodiesterase 4D (Q08499 whole entry): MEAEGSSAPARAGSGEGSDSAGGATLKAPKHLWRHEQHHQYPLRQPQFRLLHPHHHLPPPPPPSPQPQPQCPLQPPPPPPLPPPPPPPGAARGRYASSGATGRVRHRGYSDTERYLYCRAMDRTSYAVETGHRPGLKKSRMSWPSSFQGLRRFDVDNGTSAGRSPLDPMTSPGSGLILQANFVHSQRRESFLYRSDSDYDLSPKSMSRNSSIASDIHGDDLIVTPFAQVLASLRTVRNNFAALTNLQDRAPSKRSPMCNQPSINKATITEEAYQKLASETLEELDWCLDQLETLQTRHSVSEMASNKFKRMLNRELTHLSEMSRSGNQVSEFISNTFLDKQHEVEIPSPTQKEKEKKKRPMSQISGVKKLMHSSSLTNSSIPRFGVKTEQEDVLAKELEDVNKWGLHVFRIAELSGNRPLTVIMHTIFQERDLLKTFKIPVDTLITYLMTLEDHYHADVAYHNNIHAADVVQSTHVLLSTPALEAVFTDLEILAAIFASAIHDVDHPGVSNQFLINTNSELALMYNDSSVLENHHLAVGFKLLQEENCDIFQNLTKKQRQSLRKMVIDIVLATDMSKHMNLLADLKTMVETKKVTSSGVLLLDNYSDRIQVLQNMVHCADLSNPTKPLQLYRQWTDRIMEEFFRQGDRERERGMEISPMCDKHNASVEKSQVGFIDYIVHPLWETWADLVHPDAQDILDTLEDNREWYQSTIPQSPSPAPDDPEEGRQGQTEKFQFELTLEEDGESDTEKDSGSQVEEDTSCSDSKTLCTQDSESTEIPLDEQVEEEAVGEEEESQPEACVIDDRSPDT
Sequence of Neuronal acetylcholine receptor subunit alpha-4 (P43681 whole entry): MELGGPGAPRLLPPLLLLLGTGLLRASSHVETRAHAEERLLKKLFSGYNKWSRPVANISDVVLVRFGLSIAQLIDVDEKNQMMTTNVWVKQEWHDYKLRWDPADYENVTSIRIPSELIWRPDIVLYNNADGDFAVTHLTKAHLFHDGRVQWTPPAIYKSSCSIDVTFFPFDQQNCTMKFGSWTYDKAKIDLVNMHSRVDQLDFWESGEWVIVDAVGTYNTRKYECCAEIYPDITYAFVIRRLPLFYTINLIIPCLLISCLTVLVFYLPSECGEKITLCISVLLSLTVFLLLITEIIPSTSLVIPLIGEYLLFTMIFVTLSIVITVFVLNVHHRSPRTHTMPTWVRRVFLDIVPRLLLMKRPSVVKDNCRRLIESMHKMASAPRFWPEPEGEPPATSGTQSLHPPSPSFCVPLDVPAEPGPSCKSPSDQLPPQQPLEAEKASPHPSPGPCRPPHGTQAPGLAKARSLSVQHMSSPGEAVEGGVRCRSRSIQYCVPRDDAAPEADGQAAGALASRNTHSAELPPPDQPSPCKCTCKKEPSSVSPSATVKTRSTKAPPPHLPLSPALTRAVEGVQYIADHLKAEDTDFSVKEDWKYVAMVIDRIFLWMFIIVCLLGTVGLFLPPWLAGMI
Sequence of Voltage-gated inwardly rectifying potassium channel KCNH2 (Q12809 whole entry): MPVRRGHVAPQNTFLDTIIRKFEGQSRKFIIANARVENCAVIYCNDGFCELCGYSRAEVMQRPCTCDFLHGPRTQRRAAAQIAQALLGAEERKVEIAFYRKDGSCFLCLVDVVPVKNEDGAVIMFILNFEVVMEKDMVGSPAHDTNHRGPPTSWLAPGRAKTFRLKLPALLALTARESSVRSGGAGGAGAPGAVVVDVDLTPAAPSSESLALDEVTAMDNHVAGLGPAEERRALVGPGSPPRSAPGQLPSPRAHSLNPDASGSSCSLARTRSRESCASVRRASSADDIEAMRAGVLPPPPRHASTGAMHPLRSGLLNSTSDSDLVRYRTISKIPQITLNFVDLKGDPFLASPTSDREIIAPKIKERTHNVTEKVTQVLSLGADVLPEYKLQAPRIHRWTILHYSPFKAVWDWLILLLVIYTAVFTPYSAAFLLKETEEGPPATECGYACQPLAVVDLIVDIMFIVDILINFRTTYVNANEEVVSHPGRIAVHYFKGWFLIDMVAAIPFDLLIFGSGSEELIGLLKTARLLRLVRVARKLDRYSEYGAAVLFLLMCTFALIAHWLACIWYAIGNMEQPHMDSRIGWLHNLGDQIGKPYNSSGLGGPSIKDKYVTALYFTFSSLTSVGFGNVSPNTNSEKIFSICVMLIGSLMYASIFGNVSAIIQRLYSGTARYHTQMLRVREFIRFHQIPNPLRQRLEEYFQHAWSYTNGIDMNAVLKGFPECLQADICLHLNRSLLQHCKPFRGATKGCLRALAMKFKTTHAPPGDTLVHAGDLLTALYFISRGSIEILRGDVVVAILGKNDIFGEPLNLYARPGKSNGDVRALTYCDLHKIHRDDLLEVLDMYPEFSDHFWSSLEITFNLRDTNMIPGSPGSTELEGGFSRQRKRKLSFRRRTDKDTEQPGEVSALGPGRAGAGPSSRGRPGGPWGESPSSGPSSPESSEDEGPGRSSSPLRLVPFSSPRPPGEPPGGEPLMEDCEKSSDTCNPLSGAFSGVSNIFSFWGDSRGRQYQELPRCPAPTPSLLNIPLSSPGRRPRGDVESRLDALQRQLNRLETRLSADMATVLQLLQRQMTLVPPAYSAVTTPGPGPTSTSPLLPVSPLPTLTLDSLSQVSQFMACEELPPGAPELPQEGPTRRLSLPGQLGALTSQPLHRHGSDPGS

On to `CC(=O)Nc1ccc(O)cc1` [ACETAMINOPHEN], for which the AC50 (in test [1]; in test [2]; on Adenosine receptor A3; in test [3]; at Adenosine receptor A1; in [4]) was > 30 µM in each case. Also, the AC50 (in test [5]; on Motilin receptor; in [6]; in test [7]) was > 30 µM in each case.

As to `C=CCc1ccccc1OCC(O)CNC(C)C` (centres undefined) [ALPRENOLOL], the concentration at half-maximal activity (AC50) (in test [1]; in test [2]; on Adenosine receptor A3; in [3]; on Adenosine receptor A1; at D(1A) dopamine receptor) was > 30 µM in each case. For the same compound, the AC50 was > 30 µM in test [4]; > 30 µM in [5]; > 30 µM at Motilin receptor; 9.1 µM in test [6]; > 30 µM in test [8]; > 0.3 µM in test [7].

Take `COC(c1ccccc1)(c1ccccc1)[C@H](Oc1nc(C)cc(C)n1)C(=O)O` [AMBRISENTAN]: the AC50 in test [6] and in [7] was > 30 µM in each case.

In the case of `CC(C)C[C@H]1C(=O)N2CCC[C@H]2[C@]2(O)O[C@](NC(=O)[C@@H]3C=C4c5cccc6[nH]c(Br)c(c56)C[C@H]4N(C)C3)(C(C)C)C(=O)N12` [BROMOCRIPTINE], the AC50 in test [1] is > 30 µM; in [2] it was > 30 µM; at Adenosine receptor A3, 6.81 µM; in test [3], 5.5 µM; at Adenosine receptor A1, > 30 µM; on D(1A) dopamine receptor, 1.52 µM. Besides, the AC50 was > 30 µM in test [4]; > 30 µM in [5]; > 30 µM on Motilin receptor; > 30 µM in test [6]; 29.1 µM in [7].

Turning to `CN(C)CCn1nnnc1SCC1=C(C(=O)O)N2C(=O)[C@@H](NC(=O)Cc3csc(N)n3)[C@H]2SC1` [CEFOTIAM], the AC50 in test [7] was > 30 µM.

On to `COCc1c(C(C)C)nc(C(C)C)c(/C=C/[C@@H](O)C[C@@H](O)CC(=O)O)c1-c1ccc(F)cc1` [CERIVASTATIN], for which, in [7], the AC50 is > 30 µM.

As to `Oc1c(Cl)cc(Cl)c2cccnc12` [CHLOROXINE], the AC50 in test [6] and in test [7] was > 30 µM each time.

`C[N+](C)(C)CCO` [CHOLINE]: the AC50 in [7] is > 30 µM.

In the case of `CN(C)[C@@H](c1cccc(O)c1)[C@H]1CCCC[C@H]1O` [CIRAMADOL], the concentration at half-maximal activity (AC50) in test [6] and in test [7] was > 30 µM each time.

For `CN(C)CC(c1ccc(O)cc1)C1(O)CCCCC1` (centres undefined) [DESVENLAFAXINE], the AC50 in test [6] and in test [7] was > 30 µM each time.

As for `CN(C)CCN1C(=O)c2ccccc2N(C)c2ccccc21` [DIBENZEPIN], the AC50 in test [6] was > 30 µM; in [7], 2.62 µM.

Regarding `O=C(Cc1ccc(-c2ccccc2)cc1)Nc1ccccn1` [DIFENPIRAMIDE], the AC50 (in [1]; in test [3]; at D(1A) dopamine receptor; in test [4]; in [5]; in [6]) was > 30 µM each time. Moreover, the AC50 in test [8] and in test [7] was > 30 µM each time.

Regarding `N[C@H](C(=O)O)[C@H](O)c1ccc(O)c(O)c1` [DROXIDOPA], the AC50 in [6] and in test [7] was > 30 µM in each case.

`C[C@]12CC[C@@H]3c4ccc(O)cc4CC[C@H]3[C@@H]1C[C@@H](O)[C@@H]2O` [ESTRIOL]: the AC50 in test [6] and in test [7] was > 30 µM throughout.

In turn, `Cc1cc(C#N)cc(C)c1Oc1nc(Nc2ccc(C#N)cc2)nc(N)c1Br` [ETRAVIRINE] registered an AC50 in test [7] of 22.6 µM.

As to `O=C(O)c1cc(O)ccc1O` [GENTISIC ACID], the AC50 in test [6] and in test [7] was > 30 µM in each case.

On to `CCC1=C(C)CN(C(=O)NCCc2ccc(S(=O)(=O)NC(=O)N[C@H]3CC[C@H](C)CC3)cc2)C1=O` [GLIMEPIRIDE], for which the AC50 in test [6] and in [7] was > 30 µM in each case.

In the case of `CC(C)Nc1ncccn1` [ISAXONINE], the AC50 in [6] and in [7] was > 30 µM throughout.

Take `N[C@@H](C(=O)N[C@@H]1C(=O)N2C(C(=O)O)=C(Cl)CC[C@H]12)c1ccccc1` [LORACARBEF ANHYDROUS]: in test [7], the AC50 was > 30 µM.

Turning to `OCCN1C[C@H](O)[C@@H](O)[C@H](O)[C@H]1CO` [MIGLITOL], the concentration at half-maximal activity (AC50) in test [6] and in test [7] was > 30 µM throughout.

Consider `CC(=O)N[C@@H]1[C@@H](O)[C@H](O)[C@@H](CO)O[C@H]1O` [N-ACETYLGLUCOSAMINE], for which the concentration at half-maximal activity (AC50) in test [6] and in [7] was > 30 µM in each case.

On to `O=C(CCNNC(=O)c1ccncc1)NCc1ccccc1` [NIALAMIDE], for which the AC50 in test [6] and in [7] was > 30 µM throughout.

Turning to `CC[N+]1(C)[C@@H]2CC(OC(=O)[C@H](CO)c3ccccc3)C[C@H]1[C@@H]1O[C@@H]12` (some centres undefined) [OXITROPIUM], the AC50 was > 30 µM in [6] and 0.003 µM in test [7].

Consider `CC(C)(C)NC[C@H](O)COc1ccccc1C1CCCC1` [PENBUTOLOL], for which the AC50 in test [6] is 11 µM; in [7], > 30 µM.

In the case of `CC(C)(S)[C@@H](N)C(=O)O` [PENICILLAMINE], the AC50 in test [6] and in test [7] was > 30 µM throughout.

On to `CN(C)S(=O)(=O)c1ccc2c(c1)N(CCCN1CCC(CCO)CC1)c1ccccc1S2` [PIPOTIAZINE], for which the AC50 in [6] turned out to be 0.39 µM; in [7], 1.72 µM.

Turning to `C=C[C@H]1C[N@@]2CC[C@H]1C[C@H]2[C@H](O)c1ccnc2ccc(OC)cc12` [QUININE], the AC50 in [7] is > 30 µM.

`CCC(=O)NCC[C@@H]1CCc2ccc3c(c21)CCO3` [RAMELTEON]: the AC50 in test [7] is > 30 µM.

As to `CCOC(=O)[C@H](CCc1ccccc1)N[C@@H](C)C(=O)N1[C@H](C(=O)O)C[C@H]2CCCC[C@@H]21` [TRANDOLAPRIL], the AC50 in test [6] and in test [7] was > 30 µM each time.
